Tested on: PPARα target gene (ACO and CPT-1) expression
Experiment: PPARα target gene (ACO and CPT-1) expression by quantitative RT-PCR in Hepa 1-6 cells
Assay type: cell-based
Conditions: Hepa 1-6 mouse hepatoma cells, 24 h, serum-free DMEM
Method: RT-PCR gene expression analysis and binding assays were employed to address this objective. Wy14,643, 16:0/18:1-GPC, and 18:1/16:0-GPC on PPARα target gene (ACO and CPT-1) expression was measured by quantitative RT-PCR in Hepa 1-6 cells treated for 24 h as in FIG. 6A. Results are mean±SEM of 9 separate experiments. *, P<0.05 compared to control (Ctrl, 80% PBS/20% DMSO).
The C57BL/6 mouse hepatoma cell line Hepa 1-6 (ATCC, CRL-1830) was expanded in DMEM with 10% fetal bovine serum. For experiments, cells were cultured to 50-60% confluence, washed twice with PBS, and the medium was changed to serum-free DMEM supplemented with the various types and concentrations of phosphatidylcholine (sonicated to homogeneity in PBS/1% ethanol/4% fatty acid-free BSA), Wy14,643 (dissolved in 80% PBS/20% DMSO), or vehicle-only solutions. 24 h later, cells were washed, RNA prepared, and ACO and CPT-1 expression levels were determined by quantitative RT-PCR (see FIG. 6). For siRNA experiments, 50-60% confluent cells were treated with siRNAs or their scrambled controls (all diluted in PBS) for 72 h. Following the 72 h siRNA treatment, another set of cells received 16:0/18:1-GPC (using a concentration based on dose-response experiments) for an additional 24 h. Stealth™ siRNA oligonucleotides were used to inhibit the gene expression of mouse ChPT1 ([…]) (SEQ ID NO: 1) and CEPT1 ([…]) (SEQ ID NO: 2) were from Invitrogen (Carlsbad, Calif.).
Total RNA was extracted from Hepa 1-6 cells and liver using Trizol (Invitrogen) and treated with DNase I (RNase-free, Roche Molecular Biochemicals). Reverse transcription to cDNA and real-time quantitative PCR were performed using previously published procedures and primer-probe sequences for ACO and CPT-1 (Chakravarthy et al., 2005). […] Relative mRNA levels were calculated using both the comparative CT and standard curve methods normalized to ribosomal protein L32, an invariant internal control. […]

CCCCCCCC/C=C\CCCCCCCC(=O)O[C@H](COC(=O)CCCCCCCCCCCCCCC)COP(=O)([O-])OCC[N+](C)(C)C [16:0/18:1-GPC, 1-palmitoyl-2-oleoyl-sn-glycerol-3-phosphocholine]
expression of PPARα-dependent genes ACO and CPT-I: induces PPARα-dependent gene expression | expression of PPARα-dependent genes ACO and CPT-I (listed as 1-palmitoyl-2-oleoyl-sn-glycerol-3-phosphocholine): increased expression of both ACO and CPT-I to a similar degree as equimolar amounts of the known PPARα activator Wy14,643
